From patent EP4685149A1, “NOVEL COMPOUND AS ENDOTHELIAL TO MESENCHYMAL TRANSITION (ENDMT) INHIBITOR, AND PHARMACEUTICAL COMPOSITION COMPRISING SAME” (Korea Institute of Radiological & Medical Sciences, priority 2023, dated 2024)
Read-outs that look alike come from different tables or passages of the source.

System: human vascular endothelial cell lines
Test: Inhibition of radiation-induced endothelial cell transition (EndMT), phalloidin immunofluorescence staining
Format: cell-based
Conditions: 10 uM test substance 1 hour before 10 Gy irradiation, 72 hours after irradiation, relative ratio with IR group (10 Gy alone) as 100%; for activity at 10 µM: Homo sapiens, Endothelial cell, light or radiation study
Protocol: Test substances (Examples 1 to 45) were treated with a 10 mM DMSO solution at a ratio of 1 µL per 1 mL of cell culture medium to a final concentration of 10 uM, and the test substances were treated 1 hour before irradiation on human vascular endothelial cell lines (Promocell, Germany), and then, it was irradiated at an intensity of 10 Gy. 72 hours after irradiation, the human vascular endothelial cell lines were fixed with 10% formalin, and the experiment was conducted according to the manufacturer's method using phalloidin (Invitrogen, USA) to confirm the cytoskeleton filaments that increase during fibrosis. Phalloidin is a protein that binds to the actin of cytoskeleton filaments, and phalloidin conjugated with FITC fluorescent substance made the cytoskeleton filaments appear green when observed under a microscope.
After treatment with the test substance, the area, length and density of phalloidin were measured by using a confocal microscope, and the relative ratio was expressed with the irradiated group (IR group) that was irradiated with 10 Gy alone as 100% (Table 1).

Row | Structure (SMILES) | activity at 10 µM (read-out: Palloidin Area) [%] | activity at 10 µM (read-out: Palloidin Intensity) [%] | activity at 10 µM (read-out: Palloidin Length) [%] | Palloidin Length
1 | O[C@@H]1[C@H](O)CS[C@H]1n1cnc2c(N[C@@H]3CCc4c(Cl)cccc43)nc(Cl)nc21 [Example 17, (2R,3R,4S)-2-[2-chloro-6-[[(1R)-4-chloroindan-1-yl]amino]purin-9-yl]tetrahydrothiophene-3,4-diol] | < 20 | < 20 | < 20 | –
2 | O[C@@H]1[C@H](O)CS[C@H]1n1cnc2c(NC3CCc4ccccc43)nc(Cl)nc21 (stereo partly drawn) [Example 8, (2R,3R,4S)-2-[2-chloro-6-(indan-1-ylamino)purin-9-yl]tetrahydrothiophene-3,4-diol] | 20 to 50 | 20 to 50 | 20 to 50 | –
3 | O[C@@H]1[C@H](O)CS[C@H]1n1cnc2c(NC3Cc4ccccc4C3)nc(Cl)nc21 [Example 7, (2R,3R,4S)-2-[2-chloro-6-(indan-2-ylamino)purin-9-yl]tetrahydrothiophene-3,4-diol] | > 80 | > 80 | > 80 | –
4 | O[C@@H]1[C@H](O)CS[C@H]1n1cnc2c(N[C@@H]3CCc4ccc(Br)cc43)nc(Cl)nc21 [Example 21, (2R,3R,4S)-2-[2-chloro-6-[[(1R)-6-bromoindan-1-yl]amino]purin-9-yl]tetrahydrothiophene-3,4-diol] | 20 to 50 | 20 to 50 | 20 to 50 | –
5 | COC(=O)c1cccc2c1CC[C@H]2Nc1nc(Cl)nc2c1ncn2[C@@H]1SC[C@@H](O)[C@H]1O [Example 30, Methyl (R)-1-((2-chloro-9-((2R,3R,4S)-3,4-dihydroxytetrahydrothiophen-2-yl)-9H-purin-6-yl)amino)-2,3-dihydro-1H-indene-4-carboxylate] | > 80 | > 80 | > 80 | –
6 | O[C@@H]1[C@H](O)CS[C@H]1n1cnc2c(N[C@@H]3CCc4c(Br)cccc43)nc(Cl)nc21 [Example 19, (2R,3R,4S)-2-[2-chloro-6-[[(1R)-4-bromoindan-1-yl]amino]purin-9-yl]tetrahydrothiophene-3,4-diol] | 20 to 50 | 20 to 50 | 20 to 50 | –
7 | COc1cccc2c1[C@H](Nc1nc(Cl)nc3c1ncn3[C@@H]1SC[C@@H](O)[C@H]1O)CC2 [Example 14, (2R,3R,4S)-2-[2-chloro-6-[[(1R)-7-methoxyindan-1-yl]amino]purin-9-yl]tetrahydrothiophene-3,4-diol] | 50 to 80 | 50 to 80 | 50 to 80 | –
8 | O[C@@H]1[C@H](O)CS[C@H]1n1cnc2c(N[C@@H]3CCc4c3cccc4C(F)(F)F)nc(Cl)nc21 [Example 23, (2R,3R,4S)-2-[2-chloro-6-[[(1R)-4-(trifluoromethyl)indan-1-yl]amino]purin-9-yl]tetrahydrothiophene-3,4-diol] | > 80 | > 80 | > 80 | –
9 | CCC#Cc1nc(N[C@@H]2CCc3ccccc32)c2ncn([C@@H]3SC[C@@H](O)[C@H]3O)c2n1 [Example 3, (2R,3R,4S)-2-[2-but-1-ynyl-6-[[(1R)-indan-1-yl]amino]purin-9-yl]tetrahydrothiophene-3,4-diol] | > 80 | > 80 | > 80 | –
10 | O[C@@H]1[C@H](O)CS[C@H]1n1cnc2c(N[C@@H]3Cc4ccccc43)nc(Cl)nc21 [Example 41, (2R,3R,4S)-2-(6-(((R)-bicyclo[4.2.0]octa-1(6),2,4-trien-7-yl)amino)-2-chloro-9H-purin-9-yl)tetrahydrothiophene-3,4-diol] | > 80 | 50 to 80 | > 80 | –
11 | NC(=O)c1cccc2c1CC[C@H]2Nc1nc(Cl)nc2c1ncn2[C@@H]1SC[C@@H](O)[C@H]1O [Example 25, (R)-1-((2-chloro-9-((2R,3R,4S)-3,4-dihydroxytetrahydrothiophen-2-yl)-9H-purin-6-yl)amino)-2,3-dihydro-1H-indene-4-carboxamide] | > 80 | > 80 | > 80 | –
12 | COc1ccc2c(c1)[C@H](Nc1nc(Cl)nc3c1ncn3[C@@H]1SC[C@@H](O)[C@H]1O)CC2 [Example 13, (2R,3R,4S)-2-[2-chloro-6-[[(1R)-6-methoxyindan-1-yl]amino]purin-9-yl]tetrahydrothiophene-3,4-diol] | 50 to 80 | 50 to 80 | 50 to 80 | –
13 | O[C@@H]1[C@H](O)CS[C@H]1n1cnc2c(NC3CCCc4ccccc43)nc(Cl)nc21 (stereo partly drawn) [Example 38, (2R,3R,4S)-2-(2-chloro-6-((1,2,3,4-tetrahydronaphthalen-1-yl)amino)-9H-purin-9-yl)tetrahydrothiophene-3,4-diol] | > 80 | > 80 | > 80 | –
14 | CCCC#Cc1nc(N[C@@H]2CCc3ccccc32)c2ncn([C@@H]3SC[C@@H](O)[C@H]3O)c2n1 [Example 5, (2R,3R,4S)-2-[6-[[(1R)-indan-1-yl]amino]-2-pent-1-ynyl-purin-9-yl]tetrahydrothiophene-3,4-diol] | 50 to 80 | 50 to 80 | 50 to 80 | –
15 | CCCC#Cc1nc(N[C@H]2CCc3ccccc32)c2ncn([C@@H]3SC[C@@H](O)[C@H]3O)c2n1 [Example 6, (2R,3R,4S)-2-[6-[[(1S)-indan-1-yl]amino]-2-pent-1-ynyl-purin-9-yl]tetrahydrothiophene-3,4-diol] | 20 to 50 | 20 to 50 | – | ++^+
16 | Cc1cccc2c1CC[C@H]2Nc1nc(Cl)nc2c1ncn2[C@@H]1SC[C@@H](O)[C@H]1O [Example 22, (2R,3R,4S)-2-[2-chloro-6-[[(1R)-4-methylindan-1-yl]amino]purin-9-yl]tetrahydrothiophene-3,4-diol] | < 20 | < 20 | – | + + + +
17 | O[C@@H]1[C@H](O)CS[C@H]1n1cnc2c(N[C@@H]3CCc4cc(F)ccc43)nc(Cl)nc21 [Example 16, (2R,3R,4S)-2-[2-chloro-6-[[(1R)-5-fluoroindan-1-yl]amino]purin-9-yl]tetrahydrothiophene-3,4-diol] | < 20 | < 20 | < 20 | –
18 | O[C@@H]1[C@H](O)CS[C@H]1n1cnc2c(NC3CCc4ccccc4C3)nc(Cl)nc21 (stereo partly drawn) [Example 35, (2R,3R,4S)-2-(2-chloro-6-((1,2,3,4-tetrahydronaphthalen-2-yl)amino)-9H-purin-9-yl)tetrahydrothiophene-3,4-diol] | > 80 | > 80 | > 80 | –
19 | O[C@@H]1[C@H](O)CS[C@H]1n1cnc2c(N[C@H]3CCCc4ccccc43)nc(Cl)nc21 [Example 40, (2R,3R,4S)-2-(2-chloro-6-(((S)-1,2,3,4-tetrahydronaphthalen-1-yl)amino)-9H-purin-9-yl)tetrahydrothiophene-3,4-diol] | > 80 | > 80 | > 80 | –
20 | COc1cccc2c1CC[C@H]2Nc1nc(Cl)nc2c1ncn2[C@@H]1SC[C@@H](O)[C@H]1O [Example 11, (2R,3R,4S)-2-[2-chloro-6-[[(1R)-4-methoxyindan-1-yl]amino]purin-9-yl]tetrahydrothiophene-3,4-diol] | 20 to 50 | 20 to 50 | 20 to 50 | –
